Assay results as given in patent US20220160686A1, “MACROCYCLIC AZOLOPYRIDINE DERIVATIVES AS EED AND PRC2 MODULATORS” (Fulcrum Therapeutics, Inc., priority 2019, published 2022).
Where two headings read alike, the source gives them in different places.

Assays:
[1] = target: T1, biotinylated AVI-tagged EED (76-441) (Homo sapiens, UniProt O75530); experiment: EED binding SPR assay; conditions: 1:1 binding model; read-out: KD, equilibrium dissociation constant as measured by surface plasmon resonance (SPR)
T1 construct: GST (N, cleaved yes); made in house; host or cells: E. coli BL21(DE3), co-expressed with pGro7
T1 sequence (O75530 76-441 limits assumed): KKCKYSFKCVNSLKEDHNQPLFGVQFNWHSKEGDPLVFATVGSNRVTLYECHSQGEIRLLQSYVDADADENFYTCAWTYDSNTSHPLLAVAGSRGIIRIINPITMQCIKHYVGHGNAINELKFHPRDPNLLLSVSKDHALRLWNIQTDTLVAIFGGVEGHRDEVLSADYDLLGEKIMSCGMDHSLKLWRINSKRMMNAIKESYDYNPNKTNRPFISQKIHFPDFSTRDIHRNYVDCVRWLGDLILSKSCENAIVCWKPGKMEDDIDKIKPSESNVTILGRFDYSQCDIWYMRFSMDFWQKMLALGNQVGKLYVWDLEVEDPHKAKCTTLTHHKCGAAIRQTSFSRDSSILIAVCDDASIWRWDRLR
Method: Biotinylated AVI-tagged EED was produced using standard molecular biology techniques. A pGEX plasmid with a GST-preScission-cleavage-site-AVI-EED(76-441) sequence was placed into E. coli BL21(DE3) cells and co-expressed with pGro7. The E. coli were grown in shaker flasks in LB with ampicillin at 37° C. at 110 rpm to an OD600=0.7. At this time the temperature was lowered to 15° C. and IPTG was added to 0.3 mM. The cells were allowed to express overnight. Cells were then harvested.
For purification, the E. coli cell pellet was lysed into a buffer of 50 mM Tris pH 8.0, 500 mM NaCl, 5% glycerol and 5 mM DTT. The lysate was loaded onto a GSTrap FF column from GE Healthcare. After washing, the bound protein was eluted with 50 mM Tris pH 8.0, 500 mM NaCl, 5% glycerol, 5 mM DTT and 15 mM GSH. The collected fractions were combined and incubated with PreScission enzyme overnight at 4° C. The cleaved protein was then passed through a GSTrap FF column in a buffer of 50 mM Tris pH 8.0, 500 mM NaCl, 5% glycerol and 5 mM DTT. The cleaved protein was confirmed through mass spectrometry. The AVI-EED(76-441) was then buffer exchanged into 50 mM Bicine pH 8.3, 10 mM ATP, 10 mM magnesium acetate and 50 μM D-Biotin. 3 mg of BirA enzyme was added to the system and incubated at 4° C. for 2 hours to biotinylate the AVI-EED(76-441). The biotinylated-AVI-EED(76-441) was then buffer exchanged into 20 mM Tris pH 8.0 and 400 mM NaCl and passed through a size exclusion column of Superdex 200 16/60 Increase. The purified monomeric biotinylated-AVI-EED(76-441) was confirmed through SDS-PAGE, LC-MS and analytical size exclusion chromatography.
All surface plasmon resonance (SPR) assays were performed using a GE Biacore S200 utilizing GE Biotin CAPture chips. Capturing of CAP reagents was performed with a flow rate of 2 μL/min for 90 seconds. For protein capturing, a solution of 50 μg/mL of biotinylated AVI-tagged EED (76-441) in 10 mM HEPES pH 7.4, 150 mM NaCl, 0.05% Tween 20 and 2% DMSO (Running Buffer) was flowed over the chip with a flow rate of 5 μL/min for a contact time of 30 seconds. Final readings were 2200-2400 RU. For compounds, 7 concentrations were made with 3-dilutions using the Running Buffer for a total of 300 μL of each concentration in a 96-well microplate. During the binding experiments, a flow rate of […] was used for an association time of 90 seconds followed by a disassociation time of 180 seconds. The compartment temperature was set at 10° C. with the chip at 25° C. During regeneration the flow rate was set to 30 μL/min for 30 seconds. All fittings were done using a 1:1 binding model.

[2] = system: human P-glycoprotein HEK cells (HEK-P-gp); experiment: H3K27me3 immunocytochemistry assay in P-gp expressing HEK293T cells, with or without elacridar; assay type: cell-based; conditions: Homo sapiens, 4 days compound treatment
Method: A plasmid encoding the human ABCB1 gene under the control of a CMV promoter was purchased from Origene (Cat #RC216080). The HEK293T cells were purchased from ATCC (Cat #CRL-3216) and were cultured for expansion in the recommended conditions. The HEK293T cells were transfected with 2 ug of the pCMV-ABCB1 plasmid using Lipofectamine 3000 following recommendations from the manufacturer (ThermoFisher Scientific, Cat #L3000008). After 24 h, cells were dissociated, and 5000 cells were seeded on a 10 cm tissue culture dish. On the next day, fresh media containing 5 nM Vinblastine (Sigma, Cat #V1377) was added, and media containing compound was replenished every 72 h. After surviving cells reached confluency, cells were passaged, and lines were maintained in the presence of 2.5 nM Vinblastine until further characterization.
P-gp expressing HEK293T, HUDEP2, and Human Mobilized Peripheral Blood Primary CD34+ cells were cultured for use in an H3K27me3 immunocytochemistry assay. HUDEP2 and Human Mobilized Peripheral Blood Primary CD34+ cells were cultured for use in an HbF immunocytochemistry assay. P-gp expressing HEK293T cells were maintained and passaged every 3-4 days by plating 300,000 viable cells in a T-25 culture flask containing 6 mLs of 293 Passaging Media comprised of DMEM (ThermoFisher #10566016), 10% fetal bovine serum (ThermoFisher #A3160502), 1% penicillin-streptomycin (ThermoFisher #15140122), and 2.5 nM Vinblastine (Sigma #V1377). To evaluate the inhibitory effect of the compounds of the present disclosure and their brain penetrant properties via P-gp mediated efflux, the H3K27me3 immunocytochemistry assay was conducted in the presence or absence of 250 nM of the P-gp inhibitor, elacridar. Poor brain penetrant compounds were expected to show higher potencies in the presence of Elacridar. However, brain penetrant compounds would show similar potencies irrespective of whether Elacridar is present or not. In these experiments plates without elacridar were seeded with P-gp expressing HEK293T cells at 1000 viable cells per well in a poly-d-lysine coated 384-well plate (Corning Cat #356697) in 45 μL of 293 Assay Media comprised of DMEM (ThermoFisher #10566016), 10% fetal bovine serum (ThermoFisher #A3160502), 1% penicillin-streptomycin (ThermoFisher #15140122). A replicate set of plates were seeded under the same conditions with 45 μL of 293 Assay Media supplemented with 250 nM of Elacridar to inhibit P-gp activity. Compounds were serially diluted at 10× concentration in 293 Media, and 5 μL transferred to their respective wells on both sets of plates for a total volume of 50 μL per well. The compound treated HEK293T cells were allowed to incubate for 4 days at 37° C., 85% relative humidity, and 5% CO2 before proceeding to ICC Fix and Stain protocol.
The Fix and Stain Protocol was the same for HEK293T, HUDEP2, and Primary CD34+ cell assays except the specific primary and secondary antibodies used for detection. Following 4 days of compound treatment, the respective plates were washed once with 25 μL of PBS (ThermoFisher #10010023) and fixed with 25 μL of 4% paraformaldehyde (ThermoFisher #28908) for 10 minutes at room temperature. The plates were then washed three times with 25 μL of PBS. Subsequent to that, the cells were permeabilized and blocked for 1 hour at room temperature in 25 μL of Perm/Block buffer comprised of IX PBS, 1% bovine serum albumin (ThermoFisher #A3294), 10% fetal bovine serum (ThermoFisher #A3160502), 0.3M glycine (Sigma #G7126), and 0.1% tween-20 (Sigma #P7949). This was followed by additional washing (three times) of the plates with 25 μL of 0.1% tween in PBS.
For the H3K27me3 assay, the cells were incubated overnight at 4° C. with 25 μL of H3K27me3 Primary Antibody (Cell Signaling #9733) diluted 1:200 in 0.1% tween-20 in PBS. […]

[3] = HEK293, 96 h, without elacridar, read-out: IC50, inhibitory activity on human P-glycoprotein HEK cells (HEK-P-gp)
[4] = HEK293, with 250 nM elacridar, read-out: IC50, inhibitory activity on human P-glycoprotein HEK cells (HEK-P-gp) pretreated with elacridar

Compound	Kd [1]	IC50 [2, 3]	IC50 [2, 4]
Cc1cn(C)c(-c2cc3c(n4cnnc24)NCc2c(F)ccc4c2C(CO4)CO3)n1 (stereo in doubt) [Compound 135, (S)-4-(1,4-dimethyl-1H-imidazol-2-yl)-12-fluoro-7a,8,13,14-tetrahydro-7H-[1,2,4]triazolo[4',3':1,6]pyrido]3,2-b]benzofuro[4,3-fg][1,4]oxazonine]	< 2.5 nM	50 to 100 nM	50 to 100 nM
Cc1ccnc(-c2cc3c(n4cnnc24)NCc2c(F)ccc4c2C(CO4)CO3)c1 (stereo in doubt) [Compound 149, (S)-12-fluoro-4-(4-methylpyridin-2-yl)-7a,8,13,14-tetrahydro-7H-[1,2,4]triazolo[4',3':1,6]pyrido]3,2-b]benzofuro[4,3-fg][1,4]oxazonine]	10 to 50 nM	> 500 nM	> 500 nM
Cc1ccc(C(F)F)c(-c2cc3c(n4cnnc24)NCc2c(F)ccc4c2[C@@H](CO4)CO3)n1 [Compound 144]	2.5 to 5 nM	100 to 500 nM	100 to 500 nM
COc1cccnc1-c1cc2c(n3cnnc13)NCc1c(F)ccc3c1[C@@H](CO3)CO2 [Compound 159, (S)-12-fluoro-4-(3-methoxypyridin-2-yl)-7a,8,13,14-tetrahydro-7H-[1,2,4]triazolo[4′,3′:1,6]pyrido[3,2-b]benzofuro[4,3-fg][1,4]oxazonine]	10 to 50 nM	> 500 nM	> 500 nM
Cc1cc(-c2cc3c(n4cnnc24)NCc2c(F)ccc4c2[C@@H](CO4)CO3)ncn1 [Compound 161, (S)-12-fluoro-4-(6-methylpyrimidin-4-yl)-7a,8,13,14-tetrahydro-7H-[1,2,4]triazolo[4′,3′:1,6]pyrido[3,2-b]benzofuro[4,3-fg][1,4]oxazonine]	5 to 10 nM	> 500 nM	> 500 nM
Cc1cncnc1-c1cc2c(n3cnnc13)NCc1c(F)ccc3c1[C@@H](CO3)CO2 [Compound 162, (S)-12-fluoro-4-(5-methylpyrimidin-4-yl)-7a,8,13,14-tetrahydro-7H-[1,2,4]triazolo[4′,3′:1,6]pyrido[3,2-b]benzofuro[4,3-fg][1,4]oxazonine]	2.5 to 5 nM	25 to 50 nM	50 to 100 nM
Fc1ccc2c3c1CNc1c(cc(-c4ncncc4Cl)c4nncn14)OC[C@@H]3CO2 [Compound 163, (S)-4-(5-chloropyrimidin-4-yl)-12-fluoro-7a,8,13,14-tetrahydro-7H-[1,2,4]triazolo[4′,3′:1,6]pyrido[3,2-b]benzofuro[4,3-fg][1,4]oxazonine]	< 2.5 nM	100 to 500 nM	25 to 50 nM
Cc1cc(Cl)cnc1-c1cc2c(n3cnnc13)NCc1c(F)ccc3c1[C@@H](CO3)CO2 [Compound 166, (S)-4-(5-chloro-3-methylpyridin-2-yl)-12-fluoro-7a,8,13,14-tetrahydro-7H-[1,2,4]triazolo[4′,3′:1,6]pyrido[3,2-b]benzofuro[4,3-fg][1,4]oxazonine]	2.5 to 5 nM	> 500 nM	> 500 nM
Cn1ncc(C#N)c1-c1cc2c(n3cnnc13)NCc1c(F)ccc3c1C(CO3)CO2 [Compound 170, (S)-5-(12-fluoro-7a,8,13,14-tetrahydro-7H-[1,2,4]triazolo[4′,3′:1,6]pyrido[3,2-b]benzofuro[4,3-fg][1,4]oxazonin-4-yl)-1-methyl-1H-pyrazole-4-carbonitrile]	< 2.5 nM	100 to 500 nM	100 to 500 nM
Fc1ccc2c3c1CNc1c(cc(-c4cnn5c4CCC5)c4nncn14)OC[C@@H]3CO2 [Compound 171, (S)-4-(5,6-dihydro-4H-pyrrolo[1,2-b]pyrazol-3-yl)-12-fluoro-7a,8,13,14-tetrahydro-7H-[1,2,4]triazolo[4',3':1,6]pyrido[3,2-b]benzofuro [4,3-fg][1,4] oxanzonine]	< 2.5 nM	> 500 nM	> 500 nM
Cn1nccc1-c1cc2c(n3cc(C(=O)O)nc13)NCc1c(F)ccc3c1[C@@H](CO3)CO2 [Compound 174, (S)-5-fluoro-12-(1-methyl-1H-pyrazol-5-yl)-6,7,15,15a-tetrahydro-1H-benzofuro[4,3-fg]imidazo[r,2′:1,6]pyrido[3,2-b][1,4]oxazonine-10-carboxylic acid]	5 to 10 nM	–	–
Cc1ncccc1-c1cc2c(n3cc(C(=O)O)nc13)NCc1c(F)ccc3c1[C@@H](CO3)CO2 [Compound 177, (S)-5-fluoro-12-(2-methylpyridin-3-yl)-6,7,15,15a-tetrahydro-1H-benzofuro[4,3-fg]imidazo[r,2′:1,6]pyrido[3,2-b][1,4]oxazonine-10-carboxylic acid]	10 to 50 nM	> 500 nM	> 500 nM
Fc1ccc2c3c1CNc1c(cc(-c4cnc(C5CC5)nc4)c4nncn14)OC[C@@H]3CO2 [Compound 178, (S)-4-(2-cyclopropylpyrimidin-5-yl)-12-fluoro-7a,8,13,14-tetrahydro-7H-[1,2,4]triazolo[4′,3′:1,6]pyrido[3,2-b]benzofuro[4,3-fg][1,4]oxazonine]	< 2.5 nM	100 to 500 nM	50 to 100 nM
